Values joined by “and” are separate entries in the source; they are usually repeats but may differ in a detail not shown here. Identical values can stand only once. Toxic doses and inconclusive results are not listed.
Tested on: B6C3F1 mice, ip Sarcoma M5076, median survival T/C
Assay: NCI In Vivo Anticancer Drug Screen. Data for tumor model Sarcoma M5076 (intraperitoneal) in B6C3F1 mice
Settings: endpoint: median survival time, higher = longer survival
Summary of the method: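 Tumour cells were transplanted into mice, compound or vehicle was given, survival of both groups was followed, and the treated figure was expressed over the control figure.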

[1] = dose: 50.0 mg/kg/injection, schedule: Q04DX004 (ip), vehicle: saline with Tween-80
[2] = dose: 100.0 mg/kg/injection, schedule: Q04DX004 (ip), vehicle: saline with Tween-80
[3] = dose: 200.0 mg/kg/injection, schedule: Q04DX004 (ip), vehicle: saline with Tween-80
[4] = dose: 50.0 mg/kg/injection, schedule: Q04DX004 (ip), vehicle: Klucel (hydroxypropylcellulose) (HPC)
[5] = dose: 100.0 mg/kg/injection, schedule: Q04DX004 (ip), vehicle: Klucel (hydroxypropylcellulose) (HPC)
[6] = dose: 25.0 mg/kg/injection, schedule: Q04DX004 (ip), vehicle: Klucel (hydroxypropylcellulose) (HPC)
[7] = dose: 200.0 mg/kg/injection, schedule: Q04DX004 (ip), vehicle: Klucel (hydroxypropylcellulose) (HPC)
[8] = dose: 400.0 mg/kg/injection, schedule: Q04DX004 (ip), vehicle: Klucel (hydroxypropylcellulose) (HPC)

For `CO[C@H](/C(C)=C/C=C/C(C)=C/c1coc(C)n1)[C@H](C)[C@H]1C[C@@H](O)[C@@]2(C)O[C@H]2/C=C/[C@@H](C)[C@@H]2C[C@@H](CC(=O)O2)C[C@H]2O[C@@H]2C(=O)O1`, the T/C (dose: 0.06 mg/kg/injection, schedule: Q04DX004 (ip), vehicle: other) was 110 % of control, the T/C (dose: 0.09 mg/kg/injection, schedule: Q04DX004 (ip), vehicle: Klucel (hydroxypropylcellulose) (HPC)) was 116 % of control and the T/C (dose: 0.09 mg/kg/injection, schedule: Q04DX004 (ip), vehicle: other) was 108 % of control and 113 % of control. For the same molecule, the T/C (dose: 0.12 mg/kg/injection, schedule: Q04DX004 (ip), vehicle: Klucel (hydroxypropylcellulose) (HPC)) was 118 % of control, the T/C (dose: 0.13 mg/kg/injection, schedule: Q01DX005 (sc), vehicle: other) was 109 % of control and the T/C (dose: 0.13 mg/kg/injection, schedule: Q04DX004 (ip), vehicle: Klucel (hydroxypropylcellulose) (HPC)) was 115 % of control and 121 % of control. The T/C (dose: 0.13 mg/kg/injection, schedule: Q04DX004 (ip), vehicle: other) was 110 % of control, the T/C (dose: 0.13 mg/kg/injection, schedule: Q04DX004 (iv), vehicle: other) was 112 % of control and the T/C (dose: 0.2 mg/kg/injection, schedule: Q01DX001 (sc), vehicle: other) was 102 % of control. The T/C (dose: 0.2 mg/kg/injection, schedule: Q01DX005 (sc), vehicle: other) was 114 % of control, the T/C (dose: 0.2 mg/kg/injection, schedule: Q01DX013 (ip), vehicle: other) was 162 % of control and the T/C (dose: 0.2 mg/kg/injection, schedule: Q04DX004 (ip), vehicle: Klucel (hydroxypropylcellulose) (HPC)) was 119 % of control. The T/C (dose: 0.2 mg/kg/injection, schedule: Q04DX004 (ip), vehicle: other) was 115 % of control and 121 % of control and 122 % of control, the T/C (dose: 0.2 mg/kg/injection, schedule: Q04DX004 (iv), vehicle: other) was 110 % of control and the T/C (dose: 0.25 mg/kg/injection, schedule: Q04DX004 (ip), vehicle: Klucel (hydroxypropylcellulose) (HPC)) was 118 % of control. The T/C (dose: 0.3 mg/kg/injection, schedule: Q01DX001 (sc), vehicle: other) was 105 % of control, the T/C (dose: 0.3 mg/kg/injection, schedule: Q01DX005 (sc), vehicle: other) was 115 % of control and the T/C (dose: 0.3 mg/kg/injection, schedule: Q01DX013 (ip), vehicle: other) was 163 % of control. The T/C (dose: 0.3 mg/kg/injection, schedule: Q04DX004 (ip), vehicle: Klucel (hydroxypropylcellulose) (HPC)) was 123 % of control, the T/C (dose: 0.3 mg/kg/injection, schedule: Q04DX004 (ip), vehicle: other) was 123 % of control and the T/C (dose: 0.3 mg/kg/injection, schedule: Q04DX004 (iv), vehicle: other) was 117 % of control. The T/C (dose: 0.44 mg/kg/injection, schedule: Q04DX004 (iv), vehicle: other) was 122 % of control, the T/C (dose: 0.45 mg/kg/injection, schedule: Q01DX001 (sc), vehicle: other) was 109 % of control and the T/C (dose: 0.67 mg/kg/injection, schedule: Q01DX001 (sc), vehicle: other) was 99 % of control. The T/C (dose: 0.67 mg/kg/injection, schedule: Q04DX004 (ip), vehicle: Klucel (hydroxypropylcellulose) (HPC)) was 150 % of control, the T/C (dose: 1.0 mg/kg/injection, schedule: Q01DX001 (sc), vehicle: other) was 104 % of control and the T/C (dose: 1.0 mg/kg/injection, schedule: Q04DX004 (ip), vehicle: other) was 169 % of control. For the same molecule, the T/C (dose: 1.5 mg/kg/injection, schedule: Q01DX001 (sc), vehicle: other) was 110 % of control, the T/C (dose: 1.5 mg/kg/injection, schedule: Q04DX004 (ip), vehicle: Klucel (hydroxypropylcellulose) (HPC)) was 161 % of control and the T/C (dose: 0.67 micrograms per hour, schedule: Q#X X024 (sc), vehicle: other) was 122 % of control. For the same molecule, the T/C (dose: 0.67 micrograms per hour, schedule: Q#X X072 (sc), vehicle: other) was 152 % of control, the T/C (dose: 1.0 micrograms per hour, schedule: Q#X X072 (sc), vehicle: other) was 150 % of control and the T/C (dose: 55.6 micrograms/kg/injection, schedule: Q03HX008 (sc), vehicle: other) was 110 % of control. The T/C (dose: 83.4 micrograms/kg/injection, schedule: Q03HX008 (sc), vehicle: other) was 118 % of control, the T/C (dose: 125.0 micrograms/kg/injection, schedule: Q03HX008 (sc), vehicle: other) was 123 % of control and the T/C (dose: 281.0 micrograms/kg/injection, schedule: Q03HX008 (sc), vehicle: other) was 120 % of control.
`CCOC(=O)CNCc1cc(=O)[nH]c2cc(Cl)ccc12` was tested, and the T/C (dose: 25.0 mg/kg/injection, schedule: Q04DX004 (ip), vehicle: saline with Tween-80) was 99 % of control, the T/C [1] was 99 % of control and the T/C [2] was 101 % of control. The T/C [3] was 99 % of control and the T/C (dose: 400.0 mg/kg/injection, schedule: Q04DX004 (ip), vehicle: saline with Tween-80) was 94 % of control.
With `COc1ccc(-c2cc(C(=O)Nc3cc(C(F)(F)F)cc(C(F)(F)F)c3)c3ccccc3n2)cc1` the T/C (dose: 50.0 mg/kg/injection, schedule: Q04DX004 (ip), vehicle: DMSO) was 101 % of control, the T/C (dose: 100.0 mg/kg/injection, schedule: Q04DX004 (ip), vehicle: DMSO) was 94 % of control and the T/C (dose: 200.0 mg/kg/injection, schedule: Q04DX004 (ip), vehicle: DMSO) was 110 % of control. For the same molecule, the T/C (dose: 400.0 mg/kg/injection, schedule: Q04DX004 (ip), vehicle: DMSO) was 111 % of control.
With `Nc1ccn(C2OC(CO)C(O)C2O)c(=O)n1` (stereo not given) the T/C (dose: 12.5 mg/kg/injection, schedule: Q01DX009 (ip), vehicle: saline) was 150 % of control and the T/C (dose: 25.0 mg/kg/injection, schedule: Q01DX009 (ip), vehicle: saline) was 162 % of control.
`N#CC1C(=O)NC(=O)C(C#N)C1C(Cl)(Cl)Cl` (stereo not given) was tested, and the T/C [4] was 94 % of control and the T/C [5] was 95 % of control.
`OC1OC2COC(c3ccccc3)OC2C(O)C1O` (stereo not given) was tested, and the T/C (dose: 18.75 mg/kg/injection, schedule: Q04DX004 (ip), vehicle: water) was 109 % of control, the T/C (dose: 37.5 mg/kg/injection, schedule: Q04DX004 (ip), vehicle: water) was 89 % of control and the T/C (dose: 75.0 mg/kg/injection, schedule: Q04DX004 (ip), vehicle: water) was 96 % of control. The T/C (dose: 150.0 mg/kg/injection, schedule: Q04DX004 (ip), vehicle: water) was 101 % of control, the T/C (dose: 300.0 mg/kg/injection, schedule: Q04DX004 (ip), vehicle: water) was 98 % of control and the T/C (dose: 600.0 mg/kg/injection, schedule: Q04DX004 (ip), vehicle: water) was 94 % of control.
`CCOC(=O)/C=C/C(=O)N1CCN(C(=O)/C=C/C(=O)OCC)C(C)C1` (stereo not given) was tested, and the T/C [6] was 98 % of control, the T/C [4] was 107 % of control and the T/C [5] was 98 % of control. The T/C [7] was 108 % of control and the T/C [8] was 100 % of control.
For `CCCCCCCCCCCC1NC(=S)NC(=O)C1C#N` (stereo not given), the T/C [4] was 91 % of control.
`O=C1C(=O)N(c2cccc(Cl)c2)C(=O)N1Cc1ccccc1` was tested, and the T/C (dose: 43.75 mg/kg/injection, schedule: Q04DX004 (ip), vehicle: Klucel (hydroxypropylcellulose) (HPC)) was 102 % of control, the T/C (dose: 87.5 mg/kg/injection, schedule: Q04DX004 (ip), vehicle: Klucel (hydroxypropylcellulose) (HPC)) was 97 % of control and the T/C (dose: 175.0 mg/kg/injection, schedule: Q04DX004 (ip), vehicle: Klucel (hydroxypropylcellulose) (HPC)) was 92 % of control. For the same molecule, the T/C (dose: 350.0 mg/kg/injection, schedule: Q04DX004 (ip), vehicle: Klucel (hydroxypropylcellulose) (HPC)) was 94 % of control and the T/C (dose: 700.0 mg/kg/injection, schedule: Q04DX004 (ip), vehicle: Klucel (hydroxypropylcellulose) (HPC)) was 88 % of control.
For `O=C1CC2(C(=O)N1CN1CCOCC1)c1ccccc1-c1ccccc12`, the T/C [7] was 113 % of control and the T/C [8] was 121 % of control.
For `CCN1CCC(=C(c2ccccc2)c2ccccc2)C1`, the T/C (dose: 18.75 mg/kg/injection, schedule: Q04DX004 (ip), vehicle: Klucel (hydroxypropylcellulose) (HPC)) was 105 % of control and the T/C (dose: 37.5 mg/kg/injection, schedule: Q04DX004 (ip), vehicle: Klucel (hydroxypropylcellulose) (HPC)) was 99 % of control.
With `COC(=O)NC1C(C)OC(OC2C/C=C(/C)C3C=CC4C(OC5CC(OC6CC(O)C(OC7CC(O)C(OC)C(C)O7)C(C)O6)C(O)C(C)O5)C(C)CC(C)C4C3(C)/C(O)=C3\C(=O)OC4(CC(C)C(CO)=CC4/C=C\2C)C3=O)CC1(C)[N+](=O)[O-]` (stereo not given) the T/C [6] was 105 % of control, the T/C [4] was 100 % of control and the T/C [5] was 87 % of control. The T/C [7] was 100 % of control.
In the case of `O=c1[nH]cnc2c1cnn2CN1CCOCC1`, the T/C [6] is reported as 99 % of control, the T/C [4] is reported as 101 % of control and the T/C [5] is reported as 98 % of control. The T/C [7] was 112 % of control.
For `CN(C)CCOCC(O)(c1ccccc1)c1ccccc1`, the T/C (dose: 37.5 mg/kg/injection, schedule: Q04DX004 (ip), vehicle: saline) was 100 % of control and the T/C (dose: 75.0 mg/kg/injection, schedule: Q04DX004 (ip), vehicle: saline) was 100 % of control.
`Clc1cc2c(nn1)Nc1ccccc1S2` was tested, and the T/C [1] was 100 % of control, the T/C [2] was 95 % of control and the T/C [3] was 95 % of control.
For `N#CC1C(=O)NC(=S)NC1c1ccc(Cl)cc1` (stereo not given), the T/C [4] was 103 % of control and the T/C [5] was 100 % of control.

Source: PubChem BioAssay AID292 (DTP/NCI, 2004)
